Reference: patent US20180008718A1, “COMPOSITIONS FOR THE SUSTAINED RELEASE OF ANTI-GLAUCOMA AGENTS TO CONTROL INTRAOCULAR PRESSURE” (The Johns Hopkins University, priority 2015, published 2018)

What was measured:
[1] = In vitro drug release kinetics of ECA-L-Cysteine polyanhydride microparticles; assay type: physicochemical; details: accelerated infinite sink conditions at 37° C.; FIG. 1
Text: FIG. 1 is a graph showing the release of ECA-L-cysteine (% release) as a function of time (days).

[2] = test system: human patients with elevated IOP; details: intracameral administration; cited from earlier work
normal, C57BL/6 mice = assay: IOP lowering effect in normal mice after administration via the epischleral vein at the limbus; assay type: in vivo
Text: FIG. 2A is a graph showing intraocular pressure (IOP, mmHg) as function of administration of free ECA and a control over time (days). FIG. 2B is a graph showing intraocular pressure (IOP, mmHg) as function of administration of ECA-L-cysteine particles and a control over time (days).

| time over which ECA-L-Cysteine conjugate was continually released in vitro [1] [days] | Compound | duration of IOP lowering [2] | duration of the IOP lowering effect (normal, C57BL/6 mice; 1 μg drug via epischleral vein at the limbus) [days] | IOP lowering compared to the untreated control group (normal, C57BL/6 mice; 1 μg drug via epischleral vein at the limbus, FIGS. 2A and 2B) | IOP lowering effect by Day 5 (normal, C57BL/6 mice; 1 μg free drug, Day 5) |
| --- | --- | --- | --- | --- | --- |
| 14 | CCC(CSC[C@H](N)C(=O)O)C(=O)c1ccc(OCC(=O)O)c(Cl)c1Cl (stereo partly drawn) [ECA-L-Cysteine conjugate] |  |  |  |  |
|  | C=C(CC)C(=O)c1ccc(OCC(=O)O)c(Cl)c1Cl [free ECA, ethacrynic acid] | three | 1 | significant lowering of IOP | gone |
